Columns and labels:
[1] = test system: anti-topiramate antibodies prepared with immunogen (17); experiment: ELISA binding inhibition study (avidity), free topiramate vs coated antigens; parameters: species or system Rabbit; settings: for Abs Antigen 16 / Abs Antigen 19 / Abs Antigen 20: 405 nm
Protocol: ELISA plates for use in an ELISA assay are prepared in order to study the polyclonal antibody prepared as described in Example 21. As such, various topiramate antigens (16), (19), and (20) are coated on different ELISA plates before being subjected to the anti-topiramate antibody and competing free topiramate. More particularly, the topiramate antigens are diluted in coating buffer, and then added to the wells of ELISA plate. After the ELISA plate is inculcated for 60 min at 37° C., the solvent in the coating buffer is decanted and a blocking buffer is added to the plate. The plate is incubated again for 60 min at 37° C., and the solvent in the blocking buffer is decanted from the plate. The ELISA plate is then stored with the blocking agent in the wells at 2-8° C. for up to 1 week. The avidity of the anti-topiramate antibodies prepared with immunogen (17) for topirainate analogs are determined by a binding inhibition study. As such, samples are prepared in 1 mL of PBS at pH 7.4 with 0.1% BSA. A composition having 30% Bmax titer or 50% Bmax titer is used to divide the obtained titer value into approximately half the titer value. Using 30% Bmax, an antibody titer of 1:10000 is diluted to 1:5000 during the sample preparation stage. About 50 μL of topiramate at different concentrations or calibrator values, (0, 2, 4, 8, 16, 32 μg/ml) are then applied to a plate as prepared in accordance with Example 22. About 50 μL of the diluted antibody is dispensed into the plate, and the compositions in the plate are mixed for 1 min on a horizontal plate shaker. The plate is characterized by a first row not containing topiramate or anti-topiramate antibody, wherein the first row is used as a negative control. A second row not containing topiramate is used as the positive control. The plate is incubated for 60 min, and washed three times with 250 μL of PBS at pH 7.4 with 0.05% tween. About 125 μL of a diluted second antibody conjugate such as antigens (16), (19), or (20), in PBS at pH 7.4 is added to each well of the plate. Titer is determined experimentally by the plate being incubated for 60 min at 37° C. and washed 3 times with 250 μL PBS, pH 7.4 with 0.05% tween. Subsequently, about 125 μL of ABTS substrate is added to each well of the plate and incubated for 20 min.

[2] = cited from earlier work
[3] = Rabbit No. 5481, topiramate 2 μg/ml
[4] = Rabbit No. 5481, topiramate 4 μg/ml
[5] = Rabbit No. 5481, topiramate 8 μg/ml
[6] = Rabbit No. 5481, topiramate 16 μg/ml
[7] = Rabbit No. 5481, topiramate 32 μg/ml
[8] = Rabbit No. 5492, topiramate 2 μg/ml
[9] = Rabbit No. 5492, topiramate 4 μg/ml
[10] = Rabbit No. 5492, topiramate 8 μg/ml
[11] = Rabbit No. 5492, topiramate 16 μg/ml
[12] = Rabbit No. 5492, topiramate 32 μg/ml
[13] = dose escalation add-on studies, morning trough serum

Question: Which “B/Bo Antigen 16” value [1, 3] does the source give for `CC1(C)O[C@@H]2[C@@H](CO[C@@]3(COS(N)(=O)=O)OC(C)(C)O[C@@H]23)O1` [Topiramate, 2,3:4,5-di-O-isopropylidene-beta-D-fructopyranose sulfamate] here?
Answer: 0.38

Question: What about the “B/Bo Antigen 19” value [1, 3] of the same compound?
Answer: 0.40

Question: What about the “B/Bo Antigen 20” value [1, 3] of the same compound?
Answer: 0.53

Question: And the “Abs Antigen 16” value [1, 3]?
Answer: 0.29

Question: And the “Abs Antigen 19” value [1, 3]?
Answer: 0.33

Question: What about the “Abs Antigen 20” value [1, 3] of the same compound?
Answer: 0.32

Question: What about the “B/Bo Antigen 16” value [1, 4] of the same compound?
Answer: 0.34

Question: And the “B/Bo Antigen 19” value [1, 4]?
Answer: 0.30

Question: And the “B/Bo Antigen 20” value [1, 4]?
Answer: 0.50

Question: What about the “Abs Antigen 16” value [1, 4] of the same compound?
Answer: 0.26

Question: And the “Abs Antigen 19” value [1, 4]?
Answer: 0.25

Question: And the “Abs Antigen 20” value [1, 4]?
Answer: 0.30

Question: What about the “B/Bo Antigen 16” value [1, 5] of the same compound?
Answer: 0.24

Question: What about the “B/Bo Antigen 19” value [1, 5] of the same compound?
Answer: 0.24

Question: What about the “B/Bo Antigen 20” value [1, 5] of the same compound?
Answer: 0.42

Question: And the “Abs Antigen 16” value [1, 5]?
Answer: 0.18

Question: What about the “Abs Antigen 19” value [1, 5] of the same compound?
Answer: 0.20

Question: And the “Abs Antigen 20” value [1, 5]?
Answer: 0.25

Question: And the “B/Bo Antigen 16” value [1, 6]?
Answer: 0.20

Question: What about the “B/Bo Antigen 19” value [1, 6] of the same compound?
Answer: 0.22

Question: And the “B/Bo Antigen 20” value [1, 6]?
Answer: 0.37

Question: What about the “Abs Antigen 16” value [1, 6] of the same compound?
Answer: 0.15

Question: And the “Abs Antigen 19” value [1, 6]?
Answer: 0.18

Question: And the “Abs Antigen 20” value [1, 6]?
Answer: 0.22

Question: What about the “B/Bo Antigen 16” value [1, 7] of the same compound?
Answer: 0.14

Question: And the “B/Bo Antigen 19” value [1, 7]?
Answer: 0.18

Question: What about the “B/Bo Antigen 20” value [1, 7] of the same compound?
Answer: 0.30

Question: And the “Abs Antigen 16” value [1, 7]?
Answer: 0.11

Question: And the “Abs Antigen 19” value [1, 7]?
Answer: 0.15

Question: What about the “Abs Antigen 20” value [1, 7] of the same compound?
Answer: 0.18

Question: What about the “B/Bo Antigen 16” value [1, 8] of the same compound?
Answer: 0.56

Question: And the “B/Bo Antigen 19” value [1, 8]?
Answer: 0.38

Question: What about the “B/Bo Antigen 20” value [1, 8] of the same compound?
Answer: 0.64

Question: And the “Abs Antigen 16” value [1, 8]?
Answer: 0.25

Question: And the “Abs Antigen 19” value [1, 8]?
Answer: 0.31

Question: What about the “Abs Antigen 20” value [1, 8] of the same compound?
Answer: 0.45

Question: And the “B/Bo Antigen 16” value [1, 9]?
Answer: 0.44

Question: And the “B/Bo Antigen 19” value [1, 9]?
Answer: 0.28

Question: What about the “B/Bo Antigen 20” value [1, 9] of the same compound?
Answer: 0.59

Question: What about the “Abs Antigen 16” value [1, 9] of the same compound?
Answer: 0.20

Question: And the “Abs Antigen 19” value [1, 9]?
Answer: 0.23

Question: What about the “Abs Antigen 20” value [1, 9] of the same compound?
Answer: 0.41

Question: What about the “B/Bo Antigen 16” value [1, 10] of the same compound?
Answer: 0.33

Question: And the “B/Bo Antigen 19” value [1, 10]?
Answer: 0.23

Question: What about the “B/Bo Antigen 20” value [1, 10] of the same compound?
Answer: 0.54

Question: What about the “Abs Antigen 16” value [1, 10] of the same compound?
Answer: 0.15

Question: What about the “Abs Antigen 19” value [1, 10] of the same compound?
Answer: 0.19

Question: What about the “Abs Antigen 20” value [1, 10] of the same compound?
Answer: 0.38

Question: What about the “B/Bo Antigen 16” value [1, 11] of the same compound?
Answer: 0.29

Question: And the “B/Bo Antigen 19” value [1, 11]?
Answer: 0.20

Question: And the “B/Bo Antigen 20” value [1, 11]?
Answer: 0.54

Question: And the “Abs Antigen 16” value [1, 11]?
Answer: 0.13

Question: And the “Abs Antigen 19” value [1, 11]?
Answer: 0.17

Question: And the “Abs Antigen 20” value [1, 11]?
Answer: 0.38

Question: What about the “B/Bo Antigen 16” value [1, 12] of the same compound?
Answer: 0.02

Question: What about the “B/Bo Antigen 19” value [1, 12] of the same compound?
Answer: 0.18

Question: And the “B/Bo Antigen 20” value [1, 12]?
Answer: 0.40

Question: What about the “Abs Antigen 16” value [1, 12] of the same compound?
Answer: 0.01

Question: What about the “Abs Antigen 19” value [1, 12] of the same compound?
Answer: 0.15

Question: What about the “Abs Antigen 20” value [1, 12] of the same compound?
Answer: 0.28

Question: What about the “serum concentration at which a reduction in seizure control was seen” value [2, 13] of the same compound?
Answer: greater than 75 μmol/L

Question: What about the “serum concentration with significant increase in side effects” value [2, 13] of the same compound?
Answer: > 60 µmol/L

Question: And the systemic topiramate concentrations ([2]; patients receiving higher doses, up to 2000 mg)?
Answer: ≤ 80 µmol/L
